Data set [1] addresses Utrophin (Mus musculus) (UniProt E9Q6R7). Briefly: Modulation of mouse Utrophin in mouse H2K mdx cells assessed as fold increase in utrophin protein level at 0.1 to 10 uM incubated for 24 hrs by Western blot analysis. Type of data set: cell-based. The following applies: filed as modulator, dose 0.1-10 µM.
The nature of data set [2]: Metabolic stability in mouse hepatocytes assessed as intrinsic clearance per 10^6 cells. The following applies: read-out: CLH. In kind it is ADME, cell-based, Hepatocyte.
Data set [3] is described as follows: Metabolic stability in mouse hepatocytes assessed as half life. In kind it is ADME, cell-based, Hepatocyte.
Data set [4] in a line: Semi-thermodynamic solubility of compound at pH 7.4. The following applies: buffer, read-out: Therm_solubility. Type of data set: physicochemical.
Data set [5] is described as follows: Metabolic stability in mouse liver microsomes assessed as half life. In kind it is ADME, Microsome. A general note: Liver microsomes are vesicles of endoplasmic reticulum, rich in cytochrome P450 enzymes.
The nature of data set [6]: Metabolic stability in mouse liver microsomes assessed as intrinsic clearance per mg protein. The following applies: read-out: CLH. In kind it is ADME, Microsome.

Values after ≈ are worked out from the molar mass of the structure shown.

What is called half-life is how long it takes for the measured level to halve.

Chain of Utrophin (Mus musculus) (E9Q6R7 as listed by the source): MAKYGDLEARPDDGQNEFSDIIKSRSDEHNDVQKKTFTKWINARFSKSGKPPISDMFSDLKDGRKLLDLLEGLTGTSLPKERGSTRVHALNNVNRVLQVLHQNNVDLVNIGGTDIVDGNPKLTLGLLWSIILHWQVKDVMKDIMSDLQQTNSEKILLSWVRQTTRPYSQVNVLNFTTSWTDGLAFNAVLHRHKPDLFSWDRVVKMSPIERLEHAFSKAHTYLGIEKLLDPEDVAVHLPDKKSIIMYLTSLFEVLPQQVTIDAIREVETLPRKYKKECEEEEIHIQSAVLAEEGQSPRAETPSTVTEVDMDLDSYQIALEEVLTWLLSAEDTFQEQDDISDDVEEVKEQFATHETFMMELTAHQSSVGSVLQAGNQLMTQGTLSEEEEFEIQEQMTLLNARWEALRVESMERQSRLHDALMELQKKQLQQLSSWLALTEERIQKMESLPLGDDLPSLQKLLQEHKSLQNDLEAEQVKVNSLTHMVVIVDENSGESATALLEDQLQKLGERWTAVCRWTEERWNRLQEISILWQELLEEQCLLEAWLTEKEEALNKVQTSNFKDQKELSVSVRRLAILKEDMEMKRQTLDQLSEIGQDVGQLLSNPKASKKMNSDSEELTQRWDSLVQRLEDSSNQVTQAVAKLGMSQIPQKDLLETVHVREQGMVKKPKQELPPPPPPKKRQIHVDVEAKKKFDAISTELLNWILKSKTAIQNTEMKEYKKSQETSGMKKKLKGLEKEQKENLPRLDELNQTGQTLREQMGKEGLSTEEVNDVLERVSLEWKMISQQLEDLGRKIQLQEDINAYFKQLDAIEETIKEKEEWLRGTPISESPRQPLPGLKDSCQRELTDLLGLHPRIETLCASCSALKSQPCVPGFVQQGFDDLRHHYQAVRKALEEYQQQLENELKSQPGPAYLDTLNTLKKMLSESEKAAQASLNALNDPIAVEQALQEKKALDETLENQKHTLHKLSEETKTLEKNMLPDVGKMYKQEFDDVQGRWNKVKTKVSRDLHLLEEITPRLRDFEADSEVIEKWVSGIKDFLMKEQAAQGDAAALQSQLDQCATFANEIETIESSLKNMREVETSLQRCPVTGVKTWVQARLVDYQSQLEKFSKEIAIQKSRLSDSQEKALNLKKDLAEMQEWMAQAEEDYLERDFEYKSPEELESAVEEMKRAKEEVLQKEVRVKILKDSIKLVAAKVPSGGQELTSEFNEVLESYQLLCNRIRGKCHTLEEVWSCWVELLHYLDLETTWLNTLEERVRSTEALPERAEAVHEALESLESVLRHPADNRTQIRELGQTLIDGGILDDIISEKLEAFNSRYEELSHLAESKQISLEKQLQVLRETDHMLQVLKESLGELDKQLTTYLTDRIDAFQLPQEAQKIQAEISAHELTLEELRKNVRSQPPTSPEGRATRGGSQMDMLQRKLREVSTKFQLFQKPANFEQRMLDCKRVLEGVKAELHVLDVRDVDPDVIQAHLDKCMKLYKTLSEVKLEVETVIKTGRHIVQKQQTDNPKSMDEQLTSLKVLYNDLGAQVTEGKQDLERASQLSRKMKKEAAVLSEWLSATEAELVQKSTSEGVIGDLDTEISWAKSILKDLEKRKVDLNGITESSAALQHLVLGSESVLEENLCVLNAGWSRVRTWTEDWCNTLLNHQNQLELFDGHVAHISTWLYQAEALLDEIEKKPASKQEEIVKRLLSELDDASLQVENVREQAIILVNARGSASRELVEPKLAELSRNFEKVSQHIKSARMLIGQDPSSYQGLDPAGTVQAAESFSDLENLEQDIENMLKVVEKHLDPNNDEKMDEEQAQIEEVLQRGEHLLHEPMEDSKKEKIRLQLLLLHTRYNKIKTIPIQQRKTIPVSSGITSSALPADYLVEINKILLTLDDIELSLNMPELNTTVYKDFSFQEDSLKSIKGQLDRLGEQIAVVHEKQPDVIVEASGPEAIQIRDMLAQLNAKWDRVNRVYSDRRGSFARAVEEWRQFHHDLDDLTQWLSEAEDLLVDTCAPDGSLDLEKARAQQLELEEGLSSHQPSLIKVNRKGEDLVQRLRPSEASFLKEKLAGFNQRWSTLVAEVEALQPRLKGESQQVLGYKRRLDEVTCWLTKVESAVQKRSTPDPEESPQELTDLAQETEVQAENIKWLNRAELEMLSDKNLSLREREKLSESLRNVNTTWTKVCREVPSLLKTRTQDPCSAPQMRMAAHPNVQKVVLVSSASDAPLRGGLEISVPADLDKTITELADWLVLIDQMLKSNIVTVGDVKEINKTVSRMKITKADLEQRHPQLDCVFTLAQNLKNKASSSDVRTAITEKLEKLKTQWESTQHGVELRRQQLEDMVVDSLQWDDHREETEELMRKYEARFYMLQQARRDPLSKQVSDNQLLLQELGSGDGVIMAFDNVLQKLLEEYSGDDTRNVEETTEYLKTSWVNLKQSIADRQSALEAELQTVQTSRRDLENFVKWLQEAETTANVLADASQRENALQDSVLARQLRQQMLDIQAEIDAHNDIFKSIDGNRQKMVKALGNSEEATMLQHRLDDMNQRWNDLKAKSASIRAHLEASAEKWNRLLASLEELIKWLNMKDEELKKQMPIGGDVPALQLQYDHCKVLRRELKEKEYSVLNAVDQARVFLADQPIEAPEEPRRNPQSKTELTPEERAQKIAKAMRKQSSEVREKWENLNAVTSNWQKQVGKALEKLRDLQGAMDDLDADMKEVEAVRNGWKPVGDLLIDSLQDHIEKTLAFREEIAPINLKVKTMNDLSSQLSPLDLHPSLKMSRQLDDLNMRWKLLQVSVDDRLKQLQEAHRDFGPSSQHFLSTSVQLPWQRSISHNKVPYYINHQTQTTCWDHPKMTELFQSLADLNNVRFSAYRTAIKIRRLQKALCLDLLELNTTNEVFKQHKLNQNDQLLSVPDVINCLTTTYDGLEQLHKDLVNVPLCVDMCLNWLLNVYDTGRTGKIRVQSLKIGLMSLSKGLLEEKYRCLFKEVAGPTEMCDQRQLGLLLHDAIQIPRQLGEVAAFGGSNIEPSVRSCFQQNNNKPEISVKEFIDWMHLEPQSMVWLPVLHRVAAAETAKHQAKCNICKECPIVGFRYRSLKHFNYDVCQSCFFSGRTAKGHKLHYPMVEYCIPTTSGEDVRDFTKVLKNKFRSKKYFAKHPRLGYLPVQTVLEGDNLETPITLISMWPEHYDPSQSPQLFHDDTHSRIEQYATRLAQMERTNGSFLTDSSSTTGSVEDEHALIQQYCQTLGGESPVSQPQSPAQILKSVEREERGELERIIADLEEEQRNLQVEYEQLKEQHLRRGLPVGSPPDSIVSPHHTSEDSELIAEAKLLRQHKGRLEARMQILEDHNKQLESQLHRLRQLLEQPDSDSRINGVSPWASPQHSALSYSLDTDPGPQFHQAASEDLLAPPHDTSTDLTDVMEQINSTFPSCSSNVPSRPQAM

As to `NNC(=O)c1nc(-c2ccccc2)cc(-c2ccc(C(F)(F)F)nc2)n1`, in data set [1], the FC was 2.5. Moreover, the hepatocyte CLint in data set [2] was 13 µL/min/1e6 cells. Further, the half-life worked out at 1.77 h in data set [3] and 7.57 h in data set [5]. Also, in data set [4], the solubility thermodynamic came out at 200 µM (≈ 71.9 µg/mL). The microsomal CLint in data set [6] stood at 1.53 µL/min/mg.

Source of the values: ChEMBL document CHEMBL5113458, “Structure-activity relationships of 2-pyrimidinecarbohydrazides as utrophin modulators for the potential treatment of Duchenne muscular dystrophy” (Bioorg Med Chem, 2022).
